Laboratory results reported in PMC10049354, “Anti-Inflammatory Effects and Photo- and Neuro-Protective Properties of BIO203, a New Amide Conjugate of Norbixin, in Development for the Treatment of Age-Related Macular Degeneration (AMD)” (International Journal of Molecular Sciences, 2023).

Legend:
[1] = Ocular PK in rats following four repeated IP administrations; format: in vivo; details: rat eye; for ocular exposure: BIO201 10 mg/kg, BIO203 2.5 mg/kg
Method: The compounds were administered to 8–9 months old Male Sprague-Dawley rats (n = 3 per group and per collection time) by four successive intraperitoneal administrations in vehicle (DMSO/NaCl/NaOH for BIO203 and PBS/Tween 80 (95/5) for BIO201). The solutions of BIO203 and BIO201 were centrifuged, and the clear supernatants were administered to rats. Administered volume was 10 mL/kg, and the final injected concentrations were 10 mg/kg and 2.5 mg/kg for BIO201 and BIO203, respectively. Again, doses administered differ because BIO201 and BIO203 solubility are not equivalent in their respective vehicles. The dose of BIO203 was reduced to avoid toxicity of DMSO present in the vehicle, but the same volumes were injected into animals. The eyes were collected 1 h after administrations n°1 to 4 according to the following timing: 1 h, 3.5 h, 5.5 h, and 7.5 h. After euthanasia, the two eyes of each rat were collected in a Precellys tube, frozen, and stored at −80 °C.
Analysis was performed on an LC 1260 System coupled with Mass Spectrometer QQQ-6420 with DAD (Agilent Technologies). Norbixin and BIO203 were eluted from a reverse-phase column (2.1 × 50 mm; 3 μm particles; Ace Excel C18) with the following gradient of acetonitrile in water (both containing 0.1% formic acid): 55 to 100% in 5 min), (flowrate: 0.3 mL/min). […] were monitored by a mass spectrometer, in positive MRM mode, with the following transitions, respectively, 381.1 -> 144.9 and 478.1 -> 362.9. For quantification of BIO201 and BIO203, calibration curves were prepared under the same conditions as the sample matrix, with various amounts of BIO201 or BIO203 (25 to 10,000 ng/mL in plasma and 5 to 500 ng/mL for eyes).
For determination of concentrations of BIO201 or BIO203 in ocular tissues, each eye was homogenized in CHCl3/MeOH (1:1, v/v) (0.5 mL) with a homogenizer (Precellys-24) during 2 cycles (30 s) at 6500 rpm. The internal standard (retinoic acid at 10 µg/mL) was added, and the organic layer was extracted. The homogenate was then extracted two times with CHCl3/CH2Cl2 (0.5 mL). […]

[2] = test system: albino rats exposed to blue-light-induced photoreceptor degeneration; assay: Blue-light damage (BLD) study in albino rats: ERG; format: in vivo, rat; details: for effect on visual function (ERG A-wave and B-wave): four IP administrations; for efficacy dose in the rat model of BLD: IP
Method: The ERG in rats was performed using the electrophysiological system RETI-animal® from Roland Consult. ERG was recorded on both eyes from overnight dark-adapted animals. Rats were anesthetized by an intramuscular injection of a mix of Rompun® (xylazine)/Imalgene® (ketamine) before ERG measurement. Ten to fifteen minutes before measurement, one drop of Mydriaticum® (0.5% tropicamide) was instilled for pupillary dilatation. The A-wave and B-wave implicit times (ms) and amplitudes (µV) were measured for each ERG. The B-wave amplitude (value and %) was given as informative data. ERG parameters: Ganzfeld Q450C, Color: white maximum, Maximum intensity: 3 cd/m^2 (0 dB); Duration 0.24 ms; number of flashes: 1, Filter: 50 Hz, Impedance threshold: 50 kΩ. For scotopic ERGs, the A-wave amplitudes were measured from the baseline to the peak of the negative potential, whereas B-wave amplitudes were measured from the trough of the A-wave to the peak of the positive potential. The recordings obtained from these analyses were tabulated and normalized (%) for each eye. Group means, standard deviation, and median values were calculated, considering each eye from one animal as a separate value. ERG recordings in mice were performed as previously described.
(§1) Sixty-four animals were selected based on good health and on scotopic electroretinogram performed before induction when the A-wave amplitude of both eyes was in the range of the global mean (all animals) of A-wave amplitude ± 1.96 SD. Animals were then randomized into the study groups using a macro function in Excel® software based on the A-wave amplitude of both eyes (mean value). On Day 0, BIO203, negative controls, and comparator (N-tert-Butyl-a-phenylnitrone (PBN)) were intraperitoneally injected using a 25 G needle in rats that have been dark-adapted for 36 h. Individually housed rats were then exposed for 6 h (±5 min) to a continuous blue, fluorescent light (400–540 nm) in clear plastic cages. After exposure and administration, the rats were placed in a dark room for 24 h (±1 h) and then were returned to rearing cyclic light conditions.

[3] = test system: albino rats exposed to blue-light-induced photoreceptor degeneration; assay: Blue-light damage (BLD) study in albino rats: retinal histology (photoreceptor layers); format: in vivo, rat; details: for preservation of retinal structure (photoreceptor layers): four IP administrations, 6 h blue-light exposure
Method: At the end of the measurement period on Day 7, rats were euthanized by an intraperitoneal injection of pentobarbital. Immediately after euthanasia, both eyeballs were sampled, fixed in Davidson’s solution, and processed for histology. Sections (5 to 7 µm thick) were performed along the vertical meridian and stained with Haematoxylin/Eosin stain. The vertical meridian included the optic nerve. […] The thickness of the outer nuclear layer was measured on each point. […] Histology and photoreceptor counting in mice were performed as previously described.
as §1

[4] = test system: primary porcine RPE cells; assay: RPE phototoxicity: photoprotection of RPE cells exposed to A2E and blue light; format: cell-based, pig; details: A2E 30 μM + blue-light illumination
Method: RPE cells were obtained from pig eyes, as previously described. RPE cells were seeded on a 96-well plate at a density of 1.5 × 10^5 cells/cm^2 in DMEM 2% FCS. BIO201, BIO203, or its pure enantiomers were added in increasing concentrations to the culture medium 48 h before illumination. A2E was added to the medium at a final concentration of 30 μM, and 19 h later, blue-light illumination was performed for 50 min using a 96 blue-led device (Durand, St Clair de la Tour, France) emitting at 470 nm (1440 mcd, 8.6 mA). Just before illumination, the culture medium was replaced by a modified DMEM without any photosensitizer and with 2% FCS. Twenty-four hours after blue-light irradiation, all cell nuclei were stained with Hoechst 33342, and nuclei of dead cells with ethidium homodimer 2, fixed with paraformaldehyde (4% in PBS, 10 min) and 9 pictures per well were captured using a fluorescence microscope (Nikon TiE) equipped with a CoolSNAP HQ2 camera and driven by Metamorph Premier On-Line program. Quantification of live cells was performed using Metamorph Premier Off-Line and a homemade program by subtraction of dead cells from all cells. For cytokines mRNA analysis, RPE cells were seeded in 24-well plates and left untreated or treated with A2E or BIO203 alone or A2E plus BIO203. After 48 h, cells were lysed using the lysis buffer from the NucleoSpin® RNA kit, and the samples were stored at −80 °C.

Row | Compound | ocular exposure of BIO203 relative to BIO201 [1] | ocular exposure [1] [ng·h/eye] | effect on visual function (ERG A-wave and B-wave) ([2]; 5 mg/kg, ERG 7 days after blue light) | effect on visual function (ERG A-wave and B-wave) ([2]; 10 mg/kg, ERG 7 days after blue light) | effect on visual function (ERG A-wave and B-wave) ([2]; 25 mg/kg, ERG 7 days after blue light, p < 0.0001) | efficacy dose in the rat model of BLD [2] [mg/kg] | preservation of retinal structure (photoreceptor layers) ([3]; 5 mg/kg) | preservation of retinal structure (photoreceptor layers) ([3]; 10 mg/kg) | preservation of retinal structure (photoreceptor layers) ([3]; 25 mg/kg, p < 0.0001) | neuroprotective effect compared to vehicle (preliminary experiment) ([3]; BIO203 at 2.5 mg/mL (so in the source), IP, rat BLD) | concentration from which protective effect was observed [4] [µM] | concentration of maximum efficacy / highest protection [4] [µM] | effect on visual function (ERG A-wave and B-wave) ([2]; 50 mg/kg, positive controls) | preservation of retinal structure (photoreceptor layers) ([3]; 50 mg/kg, p < 0.0001) | survival of RPE cells ([4]; 20 μM compound)
1 | COC1CCCN(C(=O)/C=C/C(C)=C/C=C/C(C)=C/C=C/C=C(C)/C=C/C=C(C)\C=C\C(=O)O)C1 (stereo not drawn) [BIO203] | approximately 10 times | 144.9 | no significant effect | no significant effect | protective effect | 25 | did not observe neuroprotection | did not observe neuroprotection | partially preserved the retinal structure | limited neuroprotective effect | ≥ 10 | 15 | – | – | –
2 | CC(=C/C=C/C(C)=C/C=C/C=C(C)/C=C/C=C(C)/C=C/C(=O)O)/C=C/C(=O)O [norbixin, 9′-cis-norbixin] | – | 16.7 | – | – | – | 50 | – | – | – | – | – | 20 | protected the visual functions | partially preserved the retinal structure | more than 80%
